Laboratory results published in patent US12371454B2, “Cyclic peptide compound having Kras inhibitory action” (priority 2019, dated 2025).
Starred links: 1 amine or outer side, 2 acyl side, 3 side chain; linkers in the order of their positions; H or OH if unused. Positions of bridges follow the written chain, without caps; N, C: chain ends. Non-standard residues stand in square brackets, D forms with d. Residues, ends and D or L forms follow the SMILES beside them. *: point of attachment. hPhe(3,5-F2-4-CF3) = N[C@@H](CCc1cc(F)c(C(F)(F)F)c(F)c1)C(=O)O; hPhe(3-Cl-4-CF3) = N[C@@H](CCc1ccc(C(F)(F)F)c(Cl)c1)C(=O)O; NMePhe(4-CF3) = CN[C@@H](Cc1ccc(C(F)(F)F)cc1)C(=O)O; Pro(cis-4-Ph) = O=C(O)[C@@H]1C[C@H](c2ccccc2)CN1; 3Oxa8azabicyclo(3.2.1)octane = C1CC2COCC1N2*; NMedβ3hAla = C[C@H](CC(=O)[*:2])N(C)[*:1]; NMeAla(cPent) = CN[C@@H](CC1CCCC1)C(=O)O; NMeGly(cPent) = CN[C@H](C(=O)O)C1CCCC1; NMe3Pal = CN[C@@H](Cc1cccnc1)C(=O)O; NMeCha = CN[C@@H](CC1CCCCC1)C(=O)O; NMeChg = CN[C@H](C(=O)O)C1CCCCC1; NMeD = CN[C@@H](CC(=O)O)C(=O)O; NMeL = CN[C@@H](CC(C)C)C(=O)O; NMeV = CN[C@H](C(=O)O)C(C)C; d(β3hA) = C[C@@H](N)CC(=O)O; NMeS = CN[C@@H](CO)C(=O)O; NMeA = CN[C@@H](C)C(=O)O; Piperidide = C1CCN(*)CC1; Pyrrolidide = C1CCN(*)C1; Ac5c = NC1(C(=O)O)CCCC1; Aze = O=C(O)[C@@H]1CCN1; Sar = CNCC(=O)O; Propyl = CCC*

test system: Human pancreatic cancer cell line AsPC-1; experiment: Measurement of AsPC-1 cell growth inhibition (AsPC-1 CGI); assay type: cell-based; settings: 96 h
Experimental: Measurement of AsPC-1 Cell Growth Inhibition (AsPC-1 CGI)
Test compounds were serially diluted with dimethyl sulfoxide, and 200 nL was then dispensed to a U-bottom 96-well plate using Labcyte Echo. Human pancreatic cancer cell line AsPC-1 was suspended in RPMI-1640 medium supplemented with 15% fetal bovine serum to prepare a cell suspension at 1000 cells/100 μL. The cell suspension was dispensed to a plate containing a test compound at 100 μL per well and incubated at 37° C. in a 5% carbon dioxide gas incubator. 96 hours later, 80 μL of CellTiter-Glo (Promega) was added to each well and […] was measured.

| SMILES | IC50 [µM] |
| --- | --- |
| CC[C@H](C)[C@@H]1NC(=O)[C@H](C)N(C)C(=O)C[C@@H](C(=O)N2CCCCC2)N(C)C(=O)[C@H](C2CCCCC2)N(C)C(=O)C2(CCCC2)NC(=O)[C@H](Cc2cccnc2)N(C)C(=O)[C@H](CCc2ccc(C(F)(F)F)c(Cl)c2)NC(=O)CN(C)C(=O)[C@H](CC2CCCCC2)N(C)C(=O)CN(C)C(=O)CN(C)C1=O [Compound 1012] ([NMeA]I[Sar][Sar][NMeCha][Sar][hPhe(3-Cl-4-CF3)][NMe3Pal][Ac5c][NMeChg][NMeD]-Piperidide; lactam N-11) | 0.1 to 0.5 |
| CC[C@H](C)[C@@H]1NC(=O)[C@H](CC(C)C)N(C)C(=O)C[C@@H](C(=O)N2CCCC2)N(C)C(=O)[C@H](C2CCCC2)N(C)C(=O)C2(CCCC2)NC(=O)[C@@H]2CCCN2C(=O)[C@H](CCc2ccc(C(F)(F)F)c(Cl)c2)NC(=O)CN(C)C(=O)[C@H](CC2CCCCC2)N(C)C(=O)[C@@H]2CCN2C(=O)[C@H](C)N(C)C1=O [Compound 1679] ([NMeL]I[NMeA][Aze][NMeCha][Sar][hPhe(3-Cl-4-CF3)]P[Ac5c][NMeGly(cPent)][NMeD]-Pyrrolidide; lactam N-11) | 0.02 to 0.05 |
| CC[C@H](C)[C@@H]1NC(=O)[C@H](CC(C)C)N(C)C(=O)C[C@@H](C)N(C)C(=O)[C@H](C2CCCCC2)N(C)C(=O)C2(CCCC2)NC(=O)[C@@H]2CCCN2C(=O)[C@H](CCc2cc(F)c(C(F)(F)F)c(F)c2)NC(=O)CN(C)C(=O)[C@H](Cc2ccc(C(F)(F)F)cc2)N(C)C(=O)[C@@H]2CCN2C(=O)[C@H](C)N(C)C1=O [Compound 39] (cyclo([Ac5c][NMeChg][NMedβ3hAla][NMeL]I[NMeA][Aze][NMePhe(4-CF3)][Sar][hPhe(3,5-F2-4-CF3)]P)) | 0.1 to 0.5 |
| CC[C@H](C)[C@@H]1NC(=O)[C@H](CC(C)C)N(C)C(=O)C[C@@H](C(=O)N2CCCCC2)N(C)C(=O)[C@H](C2CCCCC2)N(C)C(=O)C2(CCCC2)NC(=O)[C@@H]2C[C@H](c3ccccc3)CN2C(=O)[C@H](CCc2ccc(C(F)(F)F)c(Cl)c2)NC(=O)CN(C)C(=O)[C@H](CC2CCCCC2)N(C)C(=O)[C@@H]2CCN2C(=O)CN(C)C1=O [Compound 960] ([NMeL]I[Sar][Aze][NMeCha][Sar][hPhe(3-Cl-4-CF3)][Pro(cis-4-Ph)][Ac5c][NMeChg][NMeD]-Piperidide; lactam N-11) | 0.1 to 0.5 |
| CCCOC[C@H]1C(=O)N(C)CC(=O)N[C@@H](CCc2ccc(C(F)(F)F)c(Cl)c2)C(=O)N2CCC[C@H]2C(=O)NC2(CCCC2)C(=O)N(C)[C@@H](C2CCCC2)C(=O)N(C)[C@H](C(=O)N2C3CCC2COC3)CC(=O)N(C)[C@@H](CC(C)C)C(=O)N[C@@H]([C@@H](C)CC)C(=O)N[C@@H](C)C(=O)N2CC[C@H]2C(=O)N1C [Compound 1299] ([NMeL]IA[Aze][NMeS](Propyl)[Sar][hPhe(3-Cl-4-CF3)]P[Ac5c][NMeGly(cPent)][NMeD]-{3Oxa8azabicyclo(3.2.1)octane}; lactam N-11) | 0.02 to 0.05 |
| CC[C@H](C)[C@@H]1NC(=O)[C@H](CC(C)C)N(C)C(=O)C[C@@H](C(=O)N2CCCCC2)NC(=O)[C@H](C(C)C)N(C)C(=O)C2(CCCC2)NC(=O)[C@@H]2CCCN2C(=O)[C@H](CCc2ccc(C(F)(F)F)c(Cl)c2)NC(=O)CN(C)C(=O)[C@H](CC2CCCCC2)N(C)C(=O)[C@@H]2CCN2C(=O)[C@H](C)N(C)C1=O [Compound 1353] ([NMeL]I[NMeA][Aze][NMeCha][Sar][hPhe(3-Cl-4-CF3)]P[Ac5c][NMeV]D-Piperidide; lactam N-11) | 0.1 to 0.5 |
| CC[C@H](C)[C@@H]1NC(=O)[C@H](CC(C)C)N(C)C(=O)C[C@@H](C)NC(=O)[C@H](C(C)C)N(C)C(=O)C2(CCCC2)NC(=O)[C@@H]2CCCN2C(=O)[C@H](CCc2ccc(C(F)(F)F)c(Cl)c2)NC(=O)CN(C)C(=O)[C@H](CC2CCCCC2)N(C)C(=O)[C@@H]2CCN2C(=O)CN(C)C1=O [Compound 663] (cyclo([Ac5c][NMeV][d(β3hA)][NMeL]I[Sar][Aze][NMeCha][Sar][hPhe(3-Cl-4-CF3)]P)) | 0.1 to 0.5 |
| CC[C@H](C)[C@@H]1NC(=O)[C@H](CC(C)C)NC(=O)C[C@@H](C(=O)N2CCCCC2)N(C)C(=O)[C@H](C2CCCCC2)N(C)C(=O)C2(CCCC2)NC(=O)[C@@H]2CCCN2C(=O)[C@H](CCc2ccc(C(F)(F)F)c(Cl)c2)NC(=O)CN(C)C(=O)[C@H](CC2CCCCC2)N(C)C(=O)CN(C)C(=O)CN(C)C1=O [Compound 356] (LI[Sar][Sar][NMeCha][Sar][hPhe(3-Cl-4-CF3)]P[Ac5c][NMeChg][NMeD]-Piperidide; lactam N-11) | 0.1 to 0.5 |
| CC[C@H](C)[C@@H]1NC(=O)[C@H](CC(C)C)N(C)C(=O)C[C@@H](C)N(C)C(=O)[C@H](C(C)C)N(C)C(=O)C2(CCCC2)NC(=O)[C@@H]2CCCN2C(=O)[C@H](CCc2ccc(C(F)(F)F)c(Cl)c2)NC(=O)CN(C)C(=O)[C@H](CC2CCCC2)N(C)C(=O)CN(C)C(=O)CN(C)C1=O [Compound 88] (cyclo([Ac5c][NMeV][NMedβ3hAla][NMeL]I[Sar][Sar][NMeAla(cPent)][Sar][hPhe(3-Cl-4-CF3)]P)) | 0.05 to 0.1 |
